The values below come from patent publication EP3660147A1, “PROCESS FOR SELECTIVE SYNTHESIS OF 4-HYDROXYISOPHORONE AND 4-KETOISOPHORONE BY FUNGAL PEROXYGENASES” (Consejo Superior de Investigaciones Científicas (CSIC), priority 2018, dated 2020).

Values joined by “and” are separate entries in the source; they are usually repeats but may differ in a detail not shown here. Equal entries are not always repeated.

Series [1] deals with Chaetomium globosum unspecific peroxygenase CglUPO, wild-type, SEQ ID NO 1. The series is described as follows: Enzyme kinetics of isophorone hydroxylation (GC-MS product quantification). In kind it is biochemical. The conditions noted are these: 6.25-6400 µM substrate, 100 nM enzyme, 0.5 mM H2O2, 3 min, mean of three replicates with standard errors. The source says: (§1) AaeUPO (isoform II, 46 kDa), the first UPO described in 2004 (R. Ullrich and M. Hofrichter, FEBS Lett. 2005, 579, 6247-6250), is a wild-type (i.e. non-recombinant) peroxygenase purified from cultures of A. aegerita TM-A1, grown in soybean-peptone medium. MroUPO is another wild-type peroxygenase (32 kDa) purified from cultures of M. rotula DSM-25031 (German Collection of Microorganisms and Cell Cultures, Braunschweig). CglUPO (36 kDa) is a third wild-type peroxygenase recently purified from cultures of C. globosum DSM-62110.
Reactions were carried out with 6.25-6400 µM substrate and 100 nM enzyme. They were initiated adding 0.5 mM H2O2 and stopped by vigorous shaking in 5 mM sodium azide. Reaction times in which the reaction velocity was linear were previously selected: 5 min for AaeUPO, 3 min for CglUPO and 1 min for rHinUPO. All reactions were performed in triplicates. Product quantification was carried out by GC-MS using external standard curves, and kinetic parameters - turnover number (kcat), Michaelis constant (Km) and catalytic efficiency (kcat/Km) - were obtained by fitting the data to the Michaelis-Menten equation, or the corresponding variation of this equation when substrate inhibition is occurring, using SigmaPlot (Systat Softwarwe Inc., San Jose, CA, USA). […]

The test system of series [2] is Humicola insolens unspecific peroxygenase rHinUPO, recombinant protein, SEQ ID NO 2. The description is as above. The following applies: 6.25-6400 µM substrate, 100 nM enzyme, 0.5 mM H2O2, 1 min, mean of three replicates with standard errors. In kind it is biochemical. The source says: The rCciUPO (44 kDa) and rHinUPO recombinant enzymes were provided by Novozymes A/S. rCciUPO corresponds to the protein model 7249 from the sequenced C. cinerea genome available at the JGI (http://genome.jgi.doe.gov/Copci1) used in several studies (E. D. Babot, J. C. del Río, L. Kalum, A. T. Martínez and A. Gutiérrez, Biotechnol. Bioeng. 2013, 110, 2332; E. D. Babot, J. C. del Río, M. Cañellas, F. Sancho, F. Lucas, V. Guallar, L. Kalum, H. Lund, G. Gröbe, K. Scheibner, R. Ullrich, M. Hofrichter, A. T. Martínez and A. Gutiérrez, Appl. Environ. Microbiol. 2015, 81, 4130-4142; E. D. Babot, J. C. del Río, L. Kalum, A. T. Martínez and A. Gutiérrez, ChemCatChem 2015, 7, 283-290). The rHinUPO sequence has been more recently reported (Patent US 9908860 B2) and used for oxyfunctionalizations that are not catalyzed by other UPOs. Both UPOs were expressed in Aspergillus oryzae (patent WO/2008/119780).
Reactions were carried out with 6.25-6400 µM substrate and 100 nM enzyme. […] Product quantification was carried out by GC-MS using external standard curves, and kinetic parameters - turnover number (kcat), Michaelis constant (Km) and catalytic efficiency (kcat/Km) - were obtained by fitting the data to the Michaelis-Menten equation, or the corresponding variation of this equation when substrate inhibition is occurring, using SigmaPlot (Systat Softwarwe Inc., San Jose, CA, USA). […]

A further series concerns CYP102A1 variants. The conditions noted are these: isophorone hydroxylation; when decoy molecules were used; range over variants; cited from earlier work.
Substrate in series [3]: CC1=CC(=O)CC(C)(C)C1
Briefly: Enzyme kinetics of isophorone hydroxylation (GC-MS product quantification). The following applies: other: isophorone hydroxylation; 6.25-6400 µM substrate, 100 nM enzyme, 0.5 mM H2O2, 5 min; mean of three replicates with standard errors. In kind it is biochemical, Agrocybe aegerita.
Excerpt: as §1
Reactions were carried out with 6.25-6400 µM substrate and 100 nM enzyme. They were initiated adding 0.5 mM H2O2 and stopped by vigorous shaking in 5 mM sodium azide. Reaction times in which the reaction velocity was linear were previously selected: 5 min for AaeUPO, 3 min for CglUPO and 1 min for rHinUPO. All reactions were performed in triplicates. Product quantification was carried out by GC-MS using external standard curves, and kinetic parameters - turnover number (kcat), Michaelis constant (Km) and catalytic efficiency (kcat/Km) - were obtained by fitting the data to the Michaelis-Menten equation, or the corresponding variation of this equation when substrate inhibition is occurring, using SigmaPlot (Systat Softwarwe Inc., San Jose, CA, USA).
The analyses were performed with a Shimadzu GC-MS QP 2010 Ultra system, using a fused-silica DB-5HT capillary column (30 m × 0.25 mm internal diameter, 0.1 µm film thickness) from J&W Scientific. The oven was heated from 50 °C (1.5 min) to 90 °C (2 min) at 30 °C min^-1, and then from 90 °C to 250 °C (15 min) at 8 °C min^-1. The injection was performed at 250 °C and the transfer line was kept at 300 °C. Compounds were identified by comparing their mass spectra and retention times with those of the available authentic standards and with the NIST library.

On to `CC1=CC(=O)CC(C)(C)C1` [isophorone, 3,5,5-Trimethyl-2-cyclohexen-1-one], for which, in series [1], the Km was 243 ± 19.8 µM; the kcat was 4.4 s⁻¹ and 3.8 ± 0.1 s⁻¹. Also, in series [2], the Km was 288 ± 39.9 µM and the catalytic constant (kcat) is 23.3 ± 1.4 s⁻¹. Moreover, in the series with CYP102A1 variants, the Km is 380 to 440 µM and the turnover numbers was 2.5 to 5.5 s⁻¹.

B1: Agrocybe aegerita unspecific peroxygenase AaeUPO (isoform II), wild-type, SEQ ID NO 3 (Cyclocybe aegerita) (protein)
chain: EPGLPPGPLENSSAKLVNDEAHPWKPLRPGDIRGPCPGLNTLASHGYLPRNGVATPVQIINAVQEGLNFDNQAAVFATYAAHLVDGNLITDLLSIGRKTRLTGPDPPPPASVGGLNEHGTFEGDASMTRGDAFFGNNHDFNETLFEQLVDYSNRFGGGKYNLTVAGELRFKRIQDSIATNPNFSFVDFRFFTAYGETTFPANLFVDGRRDDGQLDMDAARSFFQFSRMPDDFFRAPSPRSGTGVEVVIQAHPMQPGRNVGKINSYTVDPTSSDFSTPCLMYEKFVNITVKSLYPNPTVQLRKALNTNLDFFFQGVAAGCTQVFPYGRD
notes: is a wild-type (i.e. non-recombinant) peroxygenase purified from cultures of A. aegerita TM-A1; made in house; host or cells: Agrocybe aegerita TM-A1 cultures (native producer, non-recombinant)
For B1, in series [3], the Km was 1381.3 ± 196.7 µM, the kcat was 20.1 ± 1.1 s⁻¹ and the kcat/Km is 1.4±0.1 x 10^4 M^-1·s^-1.

A word on the Km: it is the concentration of substrate that gives half-maximal velocity. The term kcat denotes the number of substrate molecules converted per active site and unit of time at saturation.
